According to patent US12459974B2, “Bicyclic peptide ligands specific for Nectin-4” (priority 2018, dated 2025):
*1 amine or outer side, *2 acyl side, *3 side chain or, on linkers, in order; H or OH if unused. Where a SMILES comes first, the peptide text is derived from it. Bridges are numbered along the chain shown (N, C = ends). Roman numbers before positions name the chains, in order. [ ]: non-standard residue; d: D form. The star is where a group is joined. ξ: configuration not given here. TATA = O=C(CC[*:1])N1CN(C(=O)CC[*:2])CN(C(=O)CC[*:3])C1; Dolaproine = CO[C@@H]([C@@H]1CCCN1)[C@@H](C)C(=O)O; X1 = CC[C@H](C)C(C(CC(=O)[*:2])OC)N(C)[*:1]; 1Nal = N[C@@H](Cc1cccc2ccccc12)C(=O)O; X3 = O=C(CCCC(=O)[*:2])NCCC(=O)[*:1]; PABC = O=C(OCc1ccc(N[*:1])cc1)[*:2]; Hyp = O=C(O)[C@@H]1C[C@@H](O)CN1; hArg = N=C(N)NCCCC[C@H](N)C(=O)O; Cit = NC(=O)NCCC[C@H](N)C(=O)O; X2 = CC(N*)[C@@H](O)c1ccccc1; ξNMeV = CNC(C(=O)O)C(C)C; ξV = CC(C)C(N)C(=O)O; Sar = CNCC(=O)O

Columns and labels:
HCT116 xenograft = assay: Example 9.2: in vivo efficacy in HCT116 xenograft in Balb/c nude mice; parameters: species or system Mus Musculus; conditions: for TGI / Tumor volume / T/C / Tumor volume trace over time: iv; for TGI / Tumor volume / T/C: day 14; for Tumor volume / Tumor volume trace over time: mean ± SEM; for T/C: treated/control group average tumor volume
NCI-H292 xenograft = assay: Example 9.5: in vivo efficacy in NCI-H292 xenograft in Balb/c nude mice; parameters: species or system Mus Musculus
CTG-1106 = conditions: qw iv
Excerpt: (§1) To evaluate the antitumor activity of Bicycle Agent in Low Passage Champions TumorGraft Models of Human Breast, Esophageal, and Bladder Cancer in Immunocompromised mice.
(§2) • Species: Mouse • Strain: Athymic Nude-Foxn1nu (Immune-compromised) • Source: Envigo: Indianapolis, Indiana • Gender: Female • Target age at initiation of dosing: At least 6-8 weeks of age • Target weight at initiation of dosing: At least 18 grams • Acclimation period: 3 days Experimental Design
(§3) Pre-study Animals: When sufficient stock animals reach 1.0-1.5 cm^3, tumors will be harvested for re-implantation into pre-study animals. Pre-study animals will be implanted unilaterally on the left flank with tumor fragments harvested from stock animals. Each animal is implanted from a specific passage lot and documented.
(§4) Study Animals: Pre-study tumor volumes are recorded for each experiment beginning seven to ten days after implantation. When tumors reach an average tumor volume of 150-300 mm^3, animals will be matched by tumor volume into treatment or control groups to be used for dosing and dosing initiated on Day 0.

CTG-1771 = conditions: qw iv
Excerpt: as §1, §2, §3, §4

CTG-0896 = conditions: qw iv
Excerpt: as §1, §2, §3, §4

CTG-1171 = conditions: qw iv
Excerpt: as §1, §2, §3, §4

[1] = 3 mpk, qw, day 0 after the start of treatment
[2] = 5 mpk, qw, day 0 after the start of treatment

For `CC[C@H](C)C(C(CC(=O)N1CCC[C@H]1[C@H](OC)[C@@H](C)C(=O)NC(C)[C@@H](O)c1ccccc1)OC)N(C)C(=O)[C@@H](NC(=O)C(C(C)C)N(C)C(=O)OCc1ccc(NC(=O)[C@H](CCCNC(N)=O)NC(=O)C(NC(=O)CCCC(=O)NCCC(=O)N(C)CC(=O)N(C)CC(=O)N(C)CC(=O)N(C)CC(=O)N(C)CC(=O)N(C)CC(=O)N(C)CC(=O)N(C)CC(=O)N(C)CC(=O)N(C)CC(=O)N[C@H]2CSCCC(=O)N3CN4CN(C3)C(=O)CCSC[C@H](NC(=O)[C@@H](CC(=O)O)NC(=O)[C@H](Cc3cccc5ccccc35)NC(=O)[C@@H]3CCCN3C2=O)C(=O)N[C@@H](CCSC)C(=O)N[C@@H](CCCCNC(=N)N)C(=O)N[C@@H](CC(=O)O)C(=O)N[C@@H](Cc2c[nH]c3ccccc23)C(=O)N[C@@H](CO)C(=O)N[C@@H]([C@@H](C)O)C(=O)N2CCC[C@H]2C(=O)N2C[C@H](O)C[C@H]2C(=O)N[C@@H](Cc2c[nH]c3ccccc23)C(=O)N[C@H](C(N)=O)CSCCC4=O)C(C)C)cc1)C(C)C` (stereo partly drawn) [BCY8245, MMAE-PABC-Cit-Val-Glutaryl-BCY8234] (I: [Sar][Sar][Sar][Sar][Sar][Sar][Sar][Sar][Sar][Sar]CP[1Nal][dD]CM[hArg]DWSTP[Hyp]WC-NH2 / II: [ξV][Cit][PABC][ξNMeV]V[X1][Dolaproine]-X2; linker I:11-I:15-I:25 via TATA; linker I:N-II:N via X3), the TGI (HCT116 xenograft; 3 mpk, biw) was 94.9%, the “Tumor volume” value (HCT116 xenograft; 3 mpk, biw) was 197 ± 50 mm^3 and the T/C (HCT116 xenograft; 3 mpk, biw) was 25.6%. The “Tumor volume trace over time” value (HCT116 xenograft; 3 mpk, biw, day 14 after the start of treatment) was 197 ± 50 mm^3, the “Tumor volume trace over time” value (HCT116 xenograft; [1]) was 167 ± 11 mm^3 and the “Tumor volume trace over time” value (HCT116 xenograft; 3 mpk, qw, day 2 after the start of treatment) was 209 ± 13 mm^3. For the same molecule, the “Tumor volume trace over time” value (HCT116 xenograft; 3 mpk, qw, day 4 after the start of treatment) was 227 ± 17 mm^3, the “Tumor volume trace over time” value (HCT116 xenograft; 3 mpk, qw, day 7 after the start of treatment) was 269 ± 33 mm^3 and the “Tumor volume trace over time” value (HCT116 xenograft; 3 mpk, qw, day 9 after the start of treatment) was 324 ± 39 mm^3. For the same molecule, the “Tumor volume trace over time” value (HCT116 xenograft; 3 mpk, qw, day 12 after the start of treatment) was 348 ± 27 mm^3, the TGI (HCT116 xenograft; 3 mpk, qw) was 57.1% and the “Tumor volume” value (HCT116 xenograft; 3 mpk, qw) was 425 ± 28 mm^3. The T/C (HCT116 xenograft; 3 mpk, qw) was 55.2%, the “Tumor volume trace over time” value (HCT116 xenograft; 3 mpk, qw, day 14 after the start of treatment) was 425 ± 28 mm^3 and the “Tumor volume trace over time” value (HCT116 xenograft; [2]) was 166 ± 35 mm^3. For the same molecule, the “Tumor volume trace over time” value (HCT116 xenograft; 5 mpk, qw, day 2 after the start of treatment) was 201 ± 42 mm^3, the “Tumor volume trace over time” value (HCT116 xenograft; 5 mpk, qw, day 4 after the start of treatment) was 176 ± 15 mm^3 and the “Tumor volume trace over time” value (HCT116 xenograft; 5 mpk, qw, day 7 after the start of treatment) was 183 ± 17 mm^3. For the same molecule, the “Tumor volume trace over time” value (HCT116 xenograft; 5 mpk, qw, day 9 after the start of treatment) was 170 ± 16 mm^3, the “Tumor volume trace over time” value (HCT116 xenograft; 5 mpk, qw, day 12 after the start of treatment) was 125 ± 18 mm^3 and the TGI (HCT116 xenograft; 5 mpk, qw) was 105.2%. The “Tumor volume” value (HCT116 xenograft; 5 mpk, qw) was 134 ± 12 mm^3, the T/C (HCT116 xenograft; 5 mpk, qw) was 17.4% and the “Tumor volume trace over time” value (HCT116 xenograft; 5 mpk, qw, day 14 after the start of treatment) was 134 ± 12 mm^3. For the same molecule, the “tumor response (in words)” value (HCT116 xenograft; mouse, in vivo) was “tumor growth is restrained by BCY8245 but the tumor does not undergo regression”, the TGI (NCI-H292 xenograft; 3 mg/kg biw, day 14) was 112.2% and the “Tumor volume (TV)” value (NCI-H292 xenograft; 3 mg/kg biw, day 14) was 65 mm^3. The TGI (NCI-H292 xenograft; 3 mg/kg qw, day 14) was 101.4%, the “Tumor volume (TV)” value (NCI-H292 xenograft; 3 mg/kg qw, day 14) was 149 mm^3 and the TGI (NCI-H292 xenograft; 5 mg/kg qw, day 14) was 109.8%. The “Tumor volume (TV)” value (NCI-H292 xenograft; 5 mg/kg qw, day 14) was 83 mm^3, the Tumor volume (NCI-H292 xenograft; 3 mpk, biw, day 0 after the start of treatment) was 162 mm^3 and the Tumor volume (NCI-H292 xenograft; 3 mpk, biw, day 2) was 243 mm^3. The Tumor volume (NCI-H292 xenograft; 3 mpk, biw, day 4) was 211 mm^3, the Tumor volume (NCI-H292 xenograft; 3 mpk, biw, day 7) was 101 mm^3 and the Tumor volume (NCI-H292 xenograft; 3 mpk, biw, day 9) was 100 mm^3. The Tumor volume (NCI-H292 xenograft; 3 mpk, biw, day 11) was 87 mm^3, the T/C (NCI-H292 xenograft; 3 mpk, biw, day 14) was 6.9% and the TGI (NCI-H292 xenograft; 3 mpk, biw, day 14) was 112.2%. For the same molecule, the “Tumor Volume (Mean ± SEM)” value (NCI-H292 xenograft; 3 mpk, biw, day 14) was 65 ± 3 mm^3, the Tumor volume (NCI-H292 xenograft; 3 mpk, biw, day 14) was 65 mm^3 and the Tumor volume (NCI-H292 xenograft; [1]) was 160 mm^3. The Tumor volume (NCI-H292 xenograft; 3 mpk, qw, day 2) was 220 mm^3, the Tumor volume (NCI-H292 xenograft; 3 mpk, qw, day 4) was 266 mm^3 and the Tumor volume (NCI-H292 xenograft; 3 mpk, qw, day 7) was 218 mm^3. The Tumor volume (NCI-H292 xenograft; 3 mpk, qw, day 9) was 167 mm^3, the Tumor volume (NCI-H292 xenograft; 3 mpk, qw, day 11) was 161 mm^3 and the T/C (NCI-H292 xenograft; 3 mpk, qw, day 14) was 15.8%. The TGI (NCI-H292 xenograft; 3 mpk, qw, day 14) was 101.4%, the “Tumor Volume (Mean ± SEM)” value (NCI-H292 xenograft; 3 mpk, qw, day 14) was 149 ± 43 mm^3 and the Tumor volume (NCI-H292 xenograft; 3 mpk, qw, day 14) was 149 mm^3. For the same molecule, the Tumor volume (NCI-H292 xenograft; [2]) was 160 mm^3, the Tumor volume (NCI-H292 xenograft; 5 mpk, qw, day 2) was 176 mm^3 and the Tumor volume (NCI-H292 xenograft; 5 mpk, qw, day 4) was 191 mm^3. For the same molecule, the Tumor volume (NCI-H292 xenograft; 5 mpk, qw, day 7) was 105 mm^3, the Tumor volume (NCI-H292 xenograft; 5 mpk, qw, day 9) was 82 mm^3 and the Tumor volume (NCI-H292 xenograft; 5 mpk, qw, day 11) was 91 mm^3. The T/C (NCI-H292 xenograft; 5 mpk, qw, day 14) was 8.8%, the TGI (NCI-H292 xenograft; 5 mpk, qw, day 14) was 109.8% and the “Tumor Volume (Mean ± SEM)” value (NCI-H292 xenograft; 5 mpk, qw, day 14) was 83 ± 8 mm^3. The Tumor volume (NCI-H292 xenograft; 5 mpk, qw, day 14) was 83 mm^3, the “tumor response (in words)” value (NCI-H292 xenograft; mouse, in vivo) was “causes regression of the tumor” and the “efficacy (in words)” value (CTG-1106) was “excellent efficacy evoking tumor regression”. For the same molecule, the “efficacy (in words)” value (CTG-1771) was “excellent efficacy evoking tumor regression”, the “efficacy (in words)” value (CTG-0896) was “excellent efficacy evoking tumor regression” and the “efficacy (in words)” value (CTG-1171) was “excellent efficacy evoking tumor regression”.
